For 3 compounds, Fat-like richness, Taste profile and Smoothness results are on record in patent publication US8399417B2, “Food” (Ajinomoto Co., Inc., priority 2007, dated 2013).

Starred links: 1 amine or outer side, 2 acyl side, 3 side chain; linkers in the order of their positions; H or OH if unused. Non-standard residues stand in square brackets, D forms with d. No end group written: not given here. γGlu = O=C(O)[C@H](CCC(=O)[*:2])N[*:1]; Abu = CC[C@H](N)C(=O)O

A short description of experiment [1]: Fat-like richness and smoothness imparted to low-fat milk, quantitative sensory evaluation test. It counts as in vivo, human. The settings on record: for Fat-like richness / Smoothness: n=12, control 0, strong 3, very strong 5 points. Here is the method: The quantitative sensory evaluation test was performed as follows. Each of γ-Glu-Cys-Gly (glutathione), γ-Glu-Val-Gly, and γ-Glu-Abu-Gly was mixed with commercially-available low-fat milk (non-fat milk solids content: 8.6% or more, milk fat content: 1.5%) at a concentration of 0.00001 to 1 g/dl, and the intensity of imparting fat-like richness was measured.
It should be noted that each peptide was dissolved in low-fat milk, and then a sample, the pH of which was lowered, was adjusted with NaOH so that the pH might be ±0.2 with respect to the pH of the low-fat milk free of peptide.
The sensory score for fat-like richness and smoothness was defined as follows: control (free of peptide): 0 point; strong: 3 points; and very strong: 5 points. Then, the test was performed with n=12. […] As clear from Table 6, it was confirmed that the peptide imparted fat-like richness and smoothness to low-fat milk at a lower concentration than glutathione.
The quantitative sensory evaluation test was performed as follows. Each of γ-Glu-Val-Gly and cinacalcet was mixed with commercially-available low-fat milk (non-fat milk solids content: 8.6% or more, milk fat content: 1.5%) at a concentration of 0.00001 to 1 g/dl, and the intensity of imparting fat-like richness was measured.
It should be noted that each sample was dissolved in low-fat milk, and then a sample, the pH of which was lowered, was adjusted with NaOH so that the pH might be ±0.2 with respect to the pH of the low-fat milk free of a sample.
(§1) The sensory score for fat-like richness and smoothness was defined as follows: control (free of sample): 0 point; strong: 3 points; and very strong: 5 points. Then, the test was performed with n=12.

A short description of experiment [2]: Fat-like richness and smoothness imparted to low-fat yogurt, quantitative sensory evaluation test. The class given is in vivo, human. To be noted: Table 10. The protocol:
The quantitative sensory evaluation test was performed as follows. Each of γ-Glu-Val-Gly and cinacalcet was mixed with commercially-available low-fat yogurt (non-fat milk solids content: 10.0%, milk fat content: 1.0%) at a concentration of 0.00001 to 1 g/dl, and the intensity of imparting fat-like richness was measured.
It should be noted that after each sample was dissolved in low-fat yogurt, and a sample, the pH of which was lowered, was adjusted with NaOH so that the pH might be ±0.2 with respect to the pH of the […] free of a sample.
as §1

Setting [3] is: 0.01 g/dl in low-fat milk (milk fat 1.5%), Table 6.
Where [4] appears, read: 0.01 g/dl in low-fat milk, Table 6.
Where [5] appears, read: 0.0001 g/dl in low-fat milk, Table 6.
[6] abbreviates: 0.001 g/dl in low-fat milk, Table 6.
Setting [7] is: 0.001 g/dl in low-fat milk, Table 8.

In turn, `N[C@@H](CCC(=O)N[C@@H](CS)C(=O)NCC(=O)O)C(=O)O` [γ-Glu-Cys-Gly, reference compound] came in with a Fat-like richness in experiment [1] (setting [3]) of 2.5 points. In experiment [1] (setting [4]), the Taste profile result was “Growth exists in the whole” and the Smoothness stood at 3.0 points.

[γGlu]-Val-Gly: the Taste profile entry was “Taste is enhanced in middle” in experiment [1] (setting [5]), “Taste is enhanced in middle” in experiment [1] (setting [6]), “Taste is enhanced in middle taste” in experiment [1] (setting [7]) and “Taste is enhanced in middle” in experiment [2] (0.001 g/dl in low-fat yogurt). Besides, the Fat-like richness was determined as 2.5 points in experiment [1] (setting [5]); 4.5 points in experiment [1] (setting [6]); 4.5 points in experiment [1] (setting [7]); 4.5 points in experiment [2] (0.001 g/dl in low-fat yogurt (milk fat 1.0%), n=12, control 0, strong 3, very strong 5 points). Further, the Smoothness in experiment [1] (setting [5]) is given as 2.3 points; in experiment [1] (setting [6]), 4.0 points; in experiment [1] (setting [7]), 4.0 points; in experiment [2] (0.001 g/dl in low-fat yogurt, n=12, control 0, strong 3, very strong 5 points) it was 4.0 points.

Turning to [γGlu]-[Abu]-Gly, the Fat-like richness in experiment [1] (setting [6]) was 2.3 points; in experiment [1] (setting [3]) it was 4.3 points. In addition, the Smoothness came to 3.0 points in experiment [1] (setting [6]) and 4.0 points in experiment [1] (setting [4]).
